# How the values were obtained:
# [1] = Severe test / accelerated test of luliconazole as the active ingredient; format: physicochemical
# Text: Further, it is considered that this amide form is produced by the addition of water with respect to a cyano group of the luliconazole. […] Namely, the presence of the amide form is speculated; however, the substance thereof has not been understood. Accordingly, it is difficult to speculate in the stage of manufacturing the pharmaceutical preparation that such a compound may be produced under a storage condition depending on the type of the solvent.
# The severe condition herein refers to a storage condition at 60° C. for 3 weeks, and the accelerated condition herein refers to a storage condition at 40° C. for 6 months. The stability of a pharmaceutical preparation containing luliconazole has shown very good consistency between the severe condition and the accelerated condition. Accordingly, either of the conditions can be used. Further, the storage at 40° C. for 6 months is known as a condition substitutable for the condition at a room temperature for 3 years in an application for manufacturing approval of a pharmaceutical.
# It is known that water is usually readily added to a cyano group by an acid or a base and the amide form is thereby produced. However, this generality is not applicable in the case of luliconazole, for the following reason. […]
# fungi = assay: Antifungal activity of the amide form
Production of SE form and Z form ([1]; accelerated test and/or severe test),"Production of amide form from luliconazole active ingredient ([1]; severe test (60° C., 3 weeks) or accelerated test (40° C., 6 months) of the active ingredient)",Compound,Antifungal activity (fungi)
relatively readily produced,hardly produced,"N#C/C(=C1/SC[C@@H](c2ccc(Cl)cc2Cl)S1)n1ccnc1 [luliconazole, Luliconazole]",
,,"NC(=O)/C(=C1/SC[C@@H](c2ccc(Cl)cc2Cl)S1)n1ccnc1 [amide form, [R-(E)]-α-[4-(2,4-dichlorophenyl)-1,3-dithiolan-2-ylidene]-1H-imidazole-1-acetamide]",low

# — patent US9085554B2, “Method of evaluating pharmaceutical preparation containing luliconazole and index substance” (POLA PHARMA INC., priority 2013, dated 2015)
